This is an account of results in patent US8835375B2 (Applied Nanosystems B.V., priority 2006, dated 2014).

Where two headings read alike, the source gives them in different places. Non-standard residues stand in square brackets, D forms with d. No end group written: not given here. Abu = CC[C@H](N)C(=O)O

The nature of data set [1]: proteolytic resistance in pig pancreas homogenate. It counts as in vitro ADME. The note with it: for metabolised at 3 h, 0.8 μmol angiotensin/mg pancreas homogenate / half-life: pig; for metabolised at 3 h, 0.8 μmol angiotensin/mg pancreas homogenate: pig pancreas homogenate, read-out: Degradation after 3 h (%). How it is done: (§1) Angiotensin (wildtype or cyclised analogs, chemically produced [Cyc 4-7] Ang(1-7) or biologically produced [Cyc 4-7] Ang(1-8)) was added to homogenates of pig liver (0.2 μmol angiotensin/mg liver homogenate), pig kidney (0.2 μmol angiotensin/mg kidney homogenate), pig pancreas (0.8 μmol angiotensin/mg pancreas homogenate) or plasma (1 μmol angiotensin/ml) and incubated at 37° C., pH 7.4 or pH 5, for different time periods up to 30 hours. The enzymatic reaction was stopped by 100° C. for 5 min. The remaining amount of intact angiotensin was determined by RP-HPLC with C18-column, mobile phase gradient and 214 nm detection.

Data set [2] in a line: proteolytic resistance in pig kidney homogenate. Particulars: for metabolised at 3 h, 0.2 μmol angiotensin/mg kidney homogenate / half-life: pig; for metabolised at 3 h, 0.2 μmol angiotensin/mg kidney homogenate: pig kidney homogenate, read-out: Degradation after 3 h (%). It is filed as in vitro ADME. How it is done:
as §1

A short description of data set [3]: proteolytic resistance in pig liver homogenate. It counts as in vitro ADME. The note with it: for metabolised at 3 h, 0.2 μmol angiotensin/mg liver homogenate / half-life: pig; for metabolised at 3 h, 0.2 μmol angiotensin/mg liver homogenate: pig liver homogenate, read-out: Degradation after 3 h (%). On the procedure: as §1
The nature of data set [4]: proteolytic resistance in plasma. It counts as in vitro ADME. The note with it: pH 7.4, 37° C. On the procedure:
as §1

For data set [5], the system named is Angiotensin Converting Enzyme (ACE). The data set can be described thus: Angiotensin Converting Enzyme (ACE) from Porcine kidney, SIGMA, 8 nM in 100 mM Tris-HCl, 300 mm NaCl, 10 μM Zn, pH 8.3. Particulars: 37° C.
A short description of data set [6]: in vivo stability during continuous intravenous infusion in the rat (Maldi TOF of plasma). Also noted: species or system Sprague Dawley rat. Particulars: i.v. infusion 1 mL/hour of 100 μM of each peptide together, sample taken at 120 min. How it is done: Rats (Sprague Dawley) were infused during 2 hours at a speed of 1 mL/hour with a solution containing simultaneously two compounds: both 100 μM natural Ang(1-7) as well as 100 μM methyllanthionine-containing angiotensin(1-7) with the thioether bridge between positions 4 and 7. Methyllanthionine-containing angiotensin(1-7) was prepared using L. lactis expressing lantibiotic enzymes as described in example 1. Maldi TOF analyses were performed on plasma samples as described in example 3. Undiluted sample (upper spectrum, mass peak of 826.06 Da at the arrow) and 100-fold diluted sample (lower spectrum, mass peak of 826.47 Da at the arrow) both gave a peak of the right mass, i.e. corresponding to intact methyllanthionine-containing angiotensin(1-7) (Theoretical mass M+H^+ equals 825.9758). […] In a control experiment mixing natural angiotensin(1-7) ex vivo with rat plasma, allowed subsequent detection of natural angiotensin(1-7) (not shown). Experimental details are mentioned in the text of example 3.
A male Sprague Dawley rat was kept under O2/Isoflurane (1.5-2%) narcosis throughout the study. A jugular vein catheter was applied and connected to a syringe containing 0.9% physiological salt solution. The syringe was mounted onto an infusion pump and the flow rate set to 1 mL/hour. […]

Data set [7] deals with T1, Angiotensin Converting Enzyme (ACE) from Porcine kidney (Sus scrofa, UniProt F1RRW5).
T1 construct: Angiotensin Converting Enzyme (ACE) from Porcine kidney, SIGMA; purchased SIGMA; host or cells: porcine kidney (tissue-derived)
T1 sequence (F1RRW5 34-1309): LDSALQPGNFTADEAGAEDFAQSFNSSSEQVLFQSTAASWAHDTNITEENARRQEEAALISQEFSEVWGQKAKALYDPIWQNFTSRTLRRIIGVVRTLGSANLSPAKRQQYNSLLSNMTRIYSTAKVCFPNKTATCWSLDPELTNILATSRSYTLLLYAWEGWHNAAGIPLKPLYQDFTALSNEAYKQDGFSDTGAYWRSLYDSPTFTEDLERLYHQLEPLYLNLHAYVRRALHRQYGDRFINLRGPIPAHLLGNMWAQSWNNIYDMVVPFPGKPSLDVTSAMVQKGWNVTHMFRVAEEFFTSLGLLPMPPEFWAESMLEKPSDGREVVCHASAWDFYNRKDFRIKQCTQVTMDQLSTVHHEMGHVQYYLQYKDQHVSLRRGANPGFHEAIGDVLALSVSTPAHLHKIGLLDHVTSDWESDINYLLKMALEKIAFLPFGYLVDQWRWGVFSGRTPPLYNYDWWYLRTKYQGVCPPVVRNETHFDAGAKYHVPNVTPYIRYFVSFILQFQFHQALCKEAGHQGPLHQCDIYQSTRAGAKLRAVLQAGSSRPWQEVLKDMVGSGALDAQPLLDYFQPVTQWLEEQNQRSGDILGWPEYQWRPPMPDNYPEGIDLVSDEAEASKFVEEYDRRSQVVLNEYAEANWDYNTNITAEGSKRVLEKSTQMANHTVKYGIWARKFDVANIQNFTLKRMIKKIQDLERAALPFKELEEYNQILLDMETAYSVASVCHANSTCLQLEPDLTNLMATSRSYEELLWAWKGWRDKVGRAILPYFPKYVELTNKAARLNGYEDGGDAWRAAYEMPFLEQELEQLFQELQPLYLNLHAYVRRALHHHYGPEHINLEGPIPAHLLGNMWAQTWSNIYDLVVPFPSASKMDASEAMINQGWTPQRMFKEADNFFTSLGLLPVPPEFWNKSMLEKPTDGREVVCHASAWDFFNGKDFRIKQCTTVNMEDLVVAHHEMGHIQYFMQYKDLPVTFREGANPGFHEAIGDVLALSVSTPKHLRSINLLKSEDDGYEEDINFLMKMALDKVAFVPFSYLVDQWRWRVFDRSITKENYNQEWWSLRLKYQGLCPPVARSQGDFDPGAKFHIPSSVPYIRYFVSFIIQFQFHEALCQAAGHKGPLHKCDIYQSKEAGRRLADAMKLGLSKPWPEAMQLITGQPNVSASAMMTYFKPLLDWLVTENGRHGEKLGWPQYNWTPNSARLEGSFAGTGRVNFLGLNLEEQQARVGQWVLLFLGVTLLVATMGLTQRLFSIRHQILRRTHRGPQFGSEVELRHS
Nature of the data set: resistance against angiotensin converting enzyme (ACE). Particulars: 4 nM ACE, 50 μM peptide. It counts as in vitro ADME. On the procedure: Angiotensin Converting Enzyme (ACE) from Porcine kidney, SIGMA, was used at 4 nM final concentration, FIGS. 2A and 2B, or at 8 nM final concentration, FIGS. 2C and 2D. Natural Ang(1-7) was purchased from Bachem. All experiments were performed in duplicate in a waterbath at 37° C., incubations were performed in a buffer containing 100 mM Tris-HCl, 300 mm NaCl, 10 μM Zn, pH 8.3. Thioether-ring-containing angiotensin was obtained by bacterial production using L. lactis containing the nisin modification and transporter enzymes, NisBTC. Natural angiotensin(1-7), lanthionine-containing angiotensin(1-7) and methyllanthionine-containing angiotensin(1-7) were each used at a concentration of 50 μM. Both the lanthionine and the methyllanthionine variant had the thioether bridge between positions 4 and 7. The reaction was stopped by 100° C. for 5 minutes and put on ice. Samples were centrifuged for 10 min at 14000 rpm at 4° C. and quantified by RP-HPLC. Identification of the HPLC peaks was performed using Maldi TOF mass spectrometry. All points are the average of two measurements.

Setting [8] is: pH 7.4, versus linear angiotensin(1-7).
Setting [9] is: tissue homogenate, pH 7.4, 37° C.

As to `CC[C@H](C)[C@H](NC(=O)[C@H](Cc1ccc(O)cc1)NC(=O)[C@@H](NC(=O)[C@H](CCCNC(=N)N)NC(=O)[C@@H](N)CC(=O)O)C(C)C)C(=O)N[C@@H](Cc1cnc[nH]1)C(=O)N1CCC[C@H]1C(=O)N[C@@H](Cc1ccccc1)C(=O)O` [Ang(1-8), Asp-Arg-Val-Tyr-Ile-His-Pro-Phe, reference compound], in data set [1] (pH 7.4, 37° C.), the metabolised at 3 h, 0.8 μmol angiotensin/mg pancreas homogenate is 70%. For the same compound, the metabolised at 3 h, 0.2 μmol angiotensin/mg kidney homogenate in data set [2] (pH 7.4, 37° C.) turned out to be 100%. Also, the metabolised at 3 h, 0.2 μmol angiotensin/mg liver homogenate in data set [3] (pH 7.4, 37° C.) was found to be 98%.

With `CC[C@H](C)[C@@H]1NC(=O)[C@H](NC(=O)[C@@H](NC(=O)[C@H](CCCNC(=N)N)NC(=O)[C@@H](N)CC(=O)O)C(C)C)CSC[C@@H](C(=O)O)NC(=O)[C@H](Cc2c[nH]cn2)NC1=O` [[Cyc^4-7]Ang(1-7), Asp-Arg-Val-Ala-Ile-His-Ala], the half-life – broadly, the time needed for the level to fall by half in the phase considered – is 15.4 h in data set [4]; > 24 h in data set [1] (tissue homogenate, pH 7.4, 37° C., cell printed in hours); > 24 h in data set [2] (tissue homogenate, pH 5.0, 37° C., cell printed in hours); 0.533 h in data set [2] (setting [9]); 11.8 h in data set [3] (tissue homogenate, pH 5.0, 37° C.); 1.13 h in data set [3] (setting [9]). Further, the metabolised at 3 h, 1 μmol/ml in data set [4] (read-out: Degradation after 3 h (%)) was 15%. In data set [1] (pH 5.0, 37° C.), the “Half-life (min)” value is given as “∞”. Further, the “increase of half-life by 4,7-cyclisation” value in data set [1] (setting [8]) was “more than 18 fold”; in data set [2] (setting [8]), 6 fold; in data set [3] (setting [8]), 2 fold. For the same compound, the metabolised at 3 h, 0.8 μmol angiotensin/mg pancreas homogenate in data set [1] (pH 5.0, 37° C.) was 6%; in data set [1] (pH 7.4, 37° C.) it was 4%. Also, the metabolised at 3 h, 0.2 μmol angiotensin/mg kidney homogenate in data set [2] (pH 5.0, 37° C.) came to 4%; in data set [2] (pH 7.4, 37° C.) it was 91%. In data set [3] (pH 5, versus linear angiotensin(1-7)), the “increase of half-life by ring introduction” value is recorded as 5 fold. Moreover, the metabolised at 3 h, 0.2 μmol angiotensin/mg liver homogenate in data set [3] (pH 5.0, 37° C.) was 8%; in data set [3] (pH 7.4, 37° C.), 82%.

On to `CC[C@H](C)[C@@H]1NC(=O)C(NC(=O)[C@@H](NC(=O)[C@H](CCCNC(=N)N)NC(=O)[C@@H](N)CC(=O)O)C(C)C)C(C)SC[C@@H](C(=O)N[C@@H](Cc2ccccc2)C(=O)O)NC(=O)[C@H](Cc2c[nH]cn2)NC1=O` (stereo partly drawn) [[Cyc^4-7]Ang(1-8), Asp-Arg-Val-Abu-Ile-His-Ala-Phe], for which, in data set [1] (pH 7.4, 37° C.), the half-life turned out to be 8.05 h and the metabolised at 3 h, 0.8 μmol angiotensin/mg pancreas homogenate was found to be 21%. Moreover, in data set [2] (pH 7.4, 37° C.), the half-life was determined as 0.117 h and the metabolised at 3 h, 0.2 μmol angiotensin/mg kidney homogenate turned out to be 100%. Further, in data set [3] (pH 7.4, 37° C.), the half-life was 1.12 h and the metabolised at 3 h, 0.2 μmol angiotensin/mg liver homogenate was 100%.

Regarding DRVAIHA, the not cleaved result in data set [5] is “no breakdown observed”.

Consider “DRV[Abu]IHA [methyllanthionine-containing Ang(1-7)]”, for which the “detection of intact peptide in plasma by Maldi TOF” value in data set [6] is on record as “detected”. In addition, the “formation of Ang(1-5) by incubation with ACE” value in data set [7] is recorded as “did not lead to the appearance of Ang(1-5)”. In addition, the “breakdown by ACE” value in data set [7] (26 hour incubation, 37° C., pH 8.3) was “no degradation”.
